Measurements: the NIST ThermoML archive (doi:10.1021/je101302p)
Numbers after ± are expanded uncertainties.

Conditions: Liquid; for mass density: 298.15 K, 101.33 kPa, Vibrating tube method

In the case of `CCCO` [propan-1-ol], the mass density is reported as 804.269 ± 0.19 kg/m3 and the “vapor or sublimation pressure” value (370.29 K) is reported as 101.3 ± 3.4 kPa.
For `CCCOC(=O)CC` [propyl propanoate], the mass density was 881.619 ± 0.3 kg/m3 and the “vapor or sublimation pressure” value (395.1 K) was 101.3 ± 1.7 kPa.
For `CCC(=O)O` [propanoic acid], the mass density was 993.722 ± 0.3 kg/m3 and the “vapor or sublimation pressure” value (414.53 K) was 101.3 ± 3.4 kPa.
